Laboratory results: US6492416B1, “4,5-diaryl-3(2H)-furanone derivatives as cyclooxygenase-2 inhibitors” (Pacific Corporation, priority 1999, dated 2002)

System: ICR mice
Assay: Acetic acid-induced writhing test
Type: in vivo, mouse
Settings: oral gavage
Procedure: ICR mice weighing 18˜22 g were maintained in a controlled lighting environment (12 hours on/12 hours off) and fasted overnight prior analgesic testing. Mice were administered with a compound of this invention dissolved in 10:10:80 ethanol/Tween 80/saline or vehicle only by oral gavage. The administered vehicle volume was controlled to be 10 ml/kg body weight. One hour later, the animals were treated with 0.2 ml of 1.2% acetic acid by peritoneal injection. 6 minutes later, the number of abdominal constrictions was counted for a 6 minutes period. The antinociceptive activity was expressed as the reduction in the number of abdominal constrictions, compared with that of the placebo group [J. Med. Chem. 39, 4942 (1996)]. ED50 of the mouse writhing test denotes a dose level at which the number of abdominal constrictions is half that of the placebo group. Ten animals per group were used for this study.

Structure (SMILES) | ED50 (mouse writhing)
CC1(C)OC(c2ccc(S(C)(=O)=O)cc2)=C(c2cccc(F)c2)C1=O [Example 4, 2,2-Dimethyl-4-(3-fluorophenyl)-5-{4-(methylsulfonyl)phenyl}-3(2H)-furanone] | 8.3 mg/kg body weight
CC1(C)OC(c2ccc(S(N)(=O)=O)cc2)=C(c2cccc(F)c2)C1=O [Example 129, 5-{4-(aminosulfonyl)phenyl}-2,2-dimethyl-4-(3-fluorophenyl)-3(2H)-furanone] | 12.3 mg/kg body weight
